Source: PubChem BioAssay (NCI)
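Tested at 5 concentrations; 48 h exposure; 96-well plates; endpoints linearly interpolated, else capped at highest concentration. Abbreviation: GI50, concentration required for 50% inhibition of growth. The concentration for full growth arrest is given as TGI.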

What was measured:
Experiment in all cases: NCI anticancer screen, dose series, 48 h
MOLT-4 leukemia = tested on: MOLT-4 leukemia
IGROV1 ovarian = tested on: IGROV1 ovarian
SK-MEL-2 melanoma = tested on: SK-MEL-2 melanoma
NCI-H23 lung = tested on: NCI-H23 lung
MALME-3M melanoma = tested on: MALME-3M melanoma
786-0 renal = tested on: 786-0 renal
SN12C renal = tested on: SN12C renal
K-562 leukemia = tested on: K-562 leukemia
RXF 393 renal = tested on: RXF 393 renal
TK-10 renal = tested on: TK-10 renal

Compound	TGI (MOLT-4 leukemia)	TGI (IGROV1 ovarian)	TGI (SK-MEL-2 melanoma)	TGI (NCI-H23 lung)	TGI (MALME-3M melanoma)	TGI (786-0 renal)	TGI (SN12C renal)	TGI (K-562 leukemia)	TGI (RXF 393 renal)	TGI (TK-10 renal)	GI50 (MOLT-4 leukemia)	GI50 (IGROV1 ovarian)	GI50 (SK-MEL-2 melanoma)	GI50 (NCI-H23 lung)	GI50 (MALME-3M melanoma)	GI50 (786-0 renal)	GI50 (SN12C renal)	GI50 (K-562 leukemia)	GI50 (RXF 393 renal)	GI50 (TK-10 renal)
CCSc1nc(COC(=O)NC)c(COC(=O)NC)n1C	> 100 µM	> 93.1 µM	> 100 µM	> 100 µM	> 100 µM	> 100 µM	> 100 µM	> 68.1 µM	78.5 µM	> 100 µM	–	–	–	–	–	–	–	–	–	–
CC(=O)NC(CCCN(Cc1ccccc1)C(=O)N(CCCl)N=O)C(=O)NCc1ccccc1 (stereo not given)	97.5 µM	> 100 µM	> 94.8 µM	> 75.1 µM	> 75.6 µM	> 58.7 µM	> 100 µM	> 100 µM	68.9 µM	> 100 µM	–	–	–	–	–	–	–	–	–	–
COc1ccc2c(c1)C(=O)c1c-2n(CCCN2CCOCC2)c(=O)c2ccccc12	> 100 µM	> 100 µM	63.4 µM	10.1 µM	18.7 µM	9.46 µM	> 100 µM	> 100 µM	> 21.6 µM	57.2 µM	1.47 µM	1.87 µM	14.5 µM	2.94 µM	3.44 µM	2.38 µM	4.25 µM	4.47 µM	3.22 µM	4.62 µM
O=C(NN1C(=O)CSC1c1ccc(Cl)cc1)c1[nH]c2ccc(F)cc2c1-c1ccccc1 (stereo not given)	8.17 µM	11.5 µM	26.3 µM	6.59 µM	> 42.8 µM	3.6 µM	7.84 µM	9.51 µM	15.4 µM	5.52 µM	2.4 µM	3.89 µM	9.61 µM	2.26 µM	6.03 µM	1.89 µM	2.87 µM	2.43 µM	3.42 µM	2.31 µM
COC(=O)[C@@H]1CCCN1C(=O)[C@@H]1CCCN1C(=O)[C@@H](Cc1c[nH]c2ccccc12)NC(=S)Nc1cc(C(F)(F)F)cc(C(F)(F)F)c1	> 100 µM	48.7 µM	5.11 µM	> 100 µM	24.7 µM	20.1 µM	> 100 µM	> 100 µM	5.89 µM	87.8 µM	3.16 µM	3.91 µM	2.49 µM	6.35 µM	5.17 µM	5.95 µM	6.81 µM	3.98 µM	2.14 µM	10.9 µM
Fc1ccc(Nc2nc(NCCNc3ccnc4cc(Cl)ccc34)nc(N3CCOCC3)n2)cc1	16.5 µM	21.4 µM	4.51 µM	30.2 µM	4.52 µM	15.3 µM	25 µM	10.3 µM	6.76 µM	22.7 µM	4.16 µM	6.3 µM	2.2 µM	14.6 µM	2.76 µM	3.35 µM	11.6 µM	2.91 µM	1.89 µM	10.3 µM
CC(=O)c1cccc(NCn2nnc3ccccc32)c1	> 100 µM	> 100 µM	> 100 µM	> 100 µM	> 100 µM	> 100 µM	> 100 µM	> 100 µM	> 100 µM	> 100 µM	–	–	–	–	–	–	–	–	–	–
C=C(C)CCC(C)N1CCC(N2CCC(C(=O)NCCc3ccccc3)CC2)CC1 (stereo not given)	> 100 µM	> 100 µM	54.3 µM	> 100 µM	26.9 µM	> 100 µM	> 100 µM	34.2 µM	43 µM	69.3 µM	45.9 µM	> 100 µM	21.3 µM	31.3 µM	11.8 µM	> 100 µM	55.5 µM	9.9 µM	14.8 µM	18.5 µM
NCc1ccc(-n2c(-c3nonc3N)nc3cnccc32)cc1	> 25 µM	> 25 µM	> 25 µM	> 25 µM	> 25 µM	> 25 µM	> 25 µM	> 25 µM	11.3 µM	> 25 µM	12.3 µM	> 25 µM	> 25 µM	> 25 µM	> 25 µM	7.51 µM	7.61 µM	> 25 µM	1.76 µM	0.385 µM
CC(C)OC(=O)c1ccc2[nH]c(O)c(C(=Nc3ccc(N(C)C(=O)CN4CCN(C)CC4)cc3)c3ccccc3)c2c1	2.16 µM	1.24 µM	2.72 µM	2.42 µM	2.29 µM	1.97 µM	1.6 µM	2.06 µM	0.652 µM	2.52 µM	0.274 µM	0.0764 µM	0.898 µM	0.583 µM	0.859 µM	0.327 µM	0.0977 µM	0.0435 µM	0.224 µM	0.561 µM
CN(C)c1ccc(N=Nc2c([O-])ccc3ccccc23)cc1.[C-]#[O+].[C-]#[O+].[Ir]	59.5 µM	52.7 µM	48.2 µM	54.9 µM	33.4 µM	> 56.3 µM	34.5 µM	> 100 µM	32.9 µM	51.7 µM	12.6 µM	17.9 µM	23.8 µM	19.4 µM	15.7 µM	26.4 µM	17 µM	29.4 µM	18.3 µM	23.8 µM
Clc1ccc(CN2COc3c(cc(Cl)c4cccnc34)C2)cc1	5.02 µM	8 µM	3.87 µM	6.8 µM	5.74 µM	9.41 µM	15.6 µM	3.74 µM	5.86 µM	13.4 µM	–	–	–	–	–	–	–	–	–	–
CCOC(=O)c1c(C)n(Cc2ccc(Cl)cc2Cl)c2c1cc1oc(=O)c(=O)n3c(Cc4ccccc4)nc2c13	4.55 µM	15.2 µM	32.6 µM	7.3 µM	12.9 µM	19.2 µM	4.56 µM	7.18 µM	7.34 µM	6.95 µM	2.12 µM	2.11 µM	11.8 µM	2.8 µM	5.3 µM	5.18 µM	2.22 µM	3.13 µM	2.98 µM	2.64 µM
